This passage reports IC50 results from patent publication US20260325540A1 (priority 2023, published 2026).

The term IC50 denotes the concentration that gives 50% inhibition. A high value points to lower potency.

Structures are written as SMILES.

One assay has as its target SARS-CoV-2 3CLpro (Severe acute respiratory syndrome coronavirus 2, UniProt P0DTD1). Nature of the assay: FRET based protease assay, SARS-CoV-2 3CL. The assay is classed as biochemical, SARS-CoV-2 (strain BetaCoV/Wuhan/WIV04/2019).
A further assay has as its target MERS-CoV 3CLpro (Middle East respiratory syndrome-related coronavirus, UniProt K9N638). The experiment in a line: biochemical. The note with it: MERS IC50, 75 nM MERS-CoV 3CLpro, 6 μM peptide 1 substrate, 25° C., 1.5 hrs, pH 7.5.

Sequence of MERS-CoV 3CLpro (K9N638 3248-3553 limits assumed): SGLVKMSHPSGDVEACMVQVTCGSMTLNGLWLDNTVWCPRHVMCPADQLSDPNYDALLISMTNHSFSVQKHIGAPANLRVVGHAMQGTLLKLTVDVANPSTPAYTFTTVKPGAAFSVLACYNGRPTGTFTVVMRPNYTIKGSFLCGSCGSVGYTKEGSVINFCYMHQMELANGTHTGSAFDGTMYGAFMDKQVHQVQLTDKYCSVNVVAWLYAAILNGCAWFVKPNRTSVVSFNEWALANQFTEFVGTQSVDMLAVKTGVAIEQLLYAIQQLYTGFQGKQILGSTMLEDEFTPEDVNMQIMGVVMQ

Turning to `CC1(C)[C@@H]2[C@H]3C(=O)N[C@H](C#N)C[C@@H]4C(=O)NC[C@@H]4CCCC[C@H](NC(=O)c4ccc(F)c(C(F)(F)F)c4)C(=O)N3C[C@@H]21` [Example 116], the IC50 against SARS-CoV-2 3CLpro and against MERS-CoV 3CLpro was less than 100 nM in each case.
With `CC1(C)[C@@H]2[C@H]3C(=O)N[C@H](C#N)C[C@@H]4C(=O)NC[C@@H]4CCCC[C@H](NC(=O)C4(C(F)(F)F)CC4)C(=O)N3C[C@@H]21` [Example 117], the IC50 at SARS-CoV-2 3CLpro and on MERS-CoV 3CLpro was less than 100 nM throughout.
`CC1(C(=O)N[C@H]2CCCC[C@H]3CNC(=O)[C@H]3C[C@@H](C#N)NC(=O)[C@@H]3[C@@H]4[C@H](CN3C2=O)C4(C)C)CCC1` [Example 118]: the IC50 on SARS-CoV-2 3CLpro was less than 100 nM; against MERS-CoV 3CLpro it was 100 to 1000 nM.
As for `CC1(C)[C@@H]2[C@H]3C(=O)N[C@H](C#N)C[C@@H]4C(=O)NC[C@@H]4CCCC[C@H](NC(=O)C45CC(C(F)(F)F)(C4)C5)C(=O)N3C[C@@H]21` [Example 119], the IC50 on SARS-CoV-2 3CLpro and against MERS-CoV 3CLpro was less than 100 nM in each case.
Turning to `CC1(C)[C@@H]2[C@H]3C(=O)N[C@H](C#N)C[C@@H]4C(=O)NC[C@@H]4CCCC[C@H](NC(=O)c4ccc(Cl)c(Cl)c4)C(=O)N3C[C@@H]21` [Example 120], the IC50 against SARS-CoV-2 3CLpro and at MERS-CoV 3CLpro was less than 100 nM in each case.
Consider `CC(C)(C(=O)N[C@H]1CCCC[C@H]2CNC(=O)[C@H]2C[C@@H](C#N)NC(=O)[C@@H]2[C@@H]3[C@H](CN2C1=O)C3(C)C)c1ccc(Cl)cc1` [Example 121], for which the IC50 at SARS-CoV-2 3CLpro was less than 100 nM; on MERS-CoV 3CLpro it was 100 to 1000 nM.
Taken in the same sequence, the figures for `Cc1cc(C(=O)N[C@H]2CCCC[C@H]3CNC(=O)[C@H]3C[C@@H](C#N)NC(=O)[C@@H]3[C@@H]4[C@H](CN3C2=O)C4(C)C)no1` [Example 122] were less than 100 nM and less than 100 nM.
Taken in the same sequence, the figures for `CC1(C(=O)N[C@H]2CCCC[C@H]3CNC(=O)[C@H]3C[C@@H](C#N)NC(=O)[C@@H]3[C@@H]4[C@H](CN3C2=O)C4(C)C)COC1` [Example 123] were less than 100 nM and 100 to 1000 nM.
Taken in the same sequence, the figures for `CC1(C)[C@@H]2[C@H]3C(=O)N[C@H](C#N)C[C@@H]4C(=O)NCC[C@@H]4CCCC[C@H](NC(=O)OC4CCCC4)C(=O)N3C[C@@H]21` [Example 124] were less than 100 nM and less than 100 nM.
Turning to `CC(C)(C)OC(=O)N[C@H]1CCC[C@H]2CNC(=O)[C@H]2C[C@@H](C#N)NC(=O)[C@@H]2[C@@H]3[C@H](CN2C(=O)C1)C3(C)C` [Example 125], the figures for the IC50 against SARS-CoV-2 3CLpro and on MERS-CoV 3CLpro were 1000 to 20000 nM and greater than 20000 nM, respectively.
Turning to `CC(C)(C)OC(=O)N[C@@]1(C)CCCCC[C@H]2CNC(=O)[C@H]2C[C@@H](C#N)NC(=O)[C@@H]2[C@@H]3[C@H](CN2C1=O)C3(C)C` [Example 126], the IC50 on SARS-CoV-2 3CLpro and against MERS-CoV 3CLpro was greater than 20000 nM throughout.
As to `CC(C)(C)OC(=O)N[C@H]1CCCC[C@H]2CNC(=O)[C@H]2C[C@@H](C#N)NC(=O)[C@@H]2[C@H]3CC[C@H](C3)N2C1=O` [Example 127], the IC50 on SARS-CoV-2 3CLpro and on MERS-CoV 3CLpro was 1000 to 20000 nM in each case.
Turning to `CC(C)(C)OC(=O)N[C@@H]1CCCC[C@H]2CNC(=O)[C@H]2C[C@@H](C#N)NC(=O)[C@@H]2[C@@H]3[C@H](CN2C1=O)C3(C)C` [Example 128], the concentration for half-maximal inhibition (IC50) on SARS-CoV-2 3CLpro and on MERS-CoV 3CLpro was greater than 20000 nM in each case.
Take `CC1(C)[C@@H]2[C@H]3C(=O)N[C@H](C#N)C[C@@H]4C(=O)NCC[C@@H]4CCCC[C@H](NC(=O)c4ccc(F)cc4F)C(=O)N3C[C@@H]21` [Example 129]: the IC50 against SARS-CoV-2 3CLpro and against MERS-CoV 3CLpro was less than 100 nM throughout.
With `CC1(C)C[C@H]2C(=O)N[C@H](C#N)C[C@@H]3C(=O)NC[C@@H]3CCCC[C@H](NC(=O)OC(C)(C)C)C(=O)N2C1` [Example 130], the IC50 at SARS-CoV-2 3CLpro and against MERS-CoV 3CLpro was 100 to 1000 nM throughout.
Consider `CC(C)(C)OC(=O)N[C@H]1CCCC[C@H]2CNC(=O)[C@H]2C[C@@H](C#N)NC(=O)[C@@H]2CC(F)(F)CN2C1=O` [Example 131], for which the IC50 against SARS-CoV-2 3CLpro and against MERS-CoV 3CLpro was 100 to 1000 nM throughout.
With `CC(C)(C)OC(=O)N[C@H]1CCCC[C@H]2CNC(=O)[C@H]2C[C@@H](C#N)NC(=O)[C@@H]2CC3(CCN2C1=O)CC3` [Example 132], the IC50 on SARS-CoV-2 3CLpro is less than 100 nM; against MERS-CoV 3CLpro, 100 to 1000 nM.
For `CC1(C)[C@@H]2[C@H]3C(=O)N[C@H](C#N)C[C@@H]4C(=O)NC[C@@H]4CCCC[C@H](NC(=O)c4cc(Cl)ccc4Cl)C(=O)N3C[C@@H]21` [Example 133], in that order: less than 100 nM and less than 100 nM.
For `CC1(C)[C@@H]2[C@H]3C(=O)N[C@H](C#N)C[C@@H]4C(=O)NC[C@@H]4CCCC[C@H](NC(=O)c4cccc(Cl)c4Cl)C(=O)N3C[C@@H]21` [Example 134], in that order: less than 100 nM and less than 100 nM.
For `CC1(C)[C@@H]2[C@H]3C(=O)N[C@H](C#N)C[C@@H]4C(=O)NCC[C@@H]4CCCC[C@H](NC(=O)C45CC(C(F)(F)F)(C4)C5)C(=O)N3C[C@@H]21` [Example 135], in that order: 100 to 1000 nM and less than 100 nM.
On to `CC(C)(C)C[C@@H]1NC(=O)[C@@H](NC(=O)c2ccc(Cl)c(Cl)c2)CCCC[C@H]2CNC(=O)[C@H]2C[C@@H](C#N)NC1=O` [Example 136], for which the IC50 at SARS-CoV-2 3CLpro and against MERS-CoV 3CLpro was less than 100 nM throughout.
Regarding `CC(C)(C)OC(=O)N[C@H]1CCCC[C@H]2CNC(=O)[C@H]2C[C@@H](C#N)NC(=O)[C@H](CC2CCCC2)NC1=O` [Example 137], the results for the IC50 against SARS-CoV-2 3CLpro and at MERS-CoV 3CLpro were less than 100 nM and 1000 to 20000 nM, respectively.
Taken in the same sequence, the figures for `CC(C)(F)C[C@@H]1NC(=O)[C@@H](NC(=O)OC(C)(C)C)CCCC[C@H]2CNC(=O)[C@H]2C[C@@H](C#N)NC1=O` [Example 138] were 100 to 1000 nM and 100 to 1000 nM.
Taken in the same sequence, the figures for `CC1(C)[C@@H]2[C@H]3C(=O)N[C@H](C#N)C[C@@H]4C(=O)NC[C@@H]4CCCC[C@H](NC(=O)c4ccc(F)cc4C(F)(F)F)C(=O)N3C[C@@H]21` [Example 139] were less than 100 nM and less than 100 nM.
With `CN1C[C@@H]2CCCC[C@H](NC(=O)OC(C)(C)C)C(=O)N3C[C@H]4[C@@H]([C@H]3C(=O)N[C@H](C#N)C[C@@H]2C1=O)C4(C)C` [Example 140], the IC50 against SARS-CoV-2 3CLpro and on MERS-CoV 3CLpro was 100 to 1000 nM throughout.
`CC1(C)[C@@H]2[C@H]3C(=O)N[C@H](C#N)C[C@@H]4C(=O)NC[C@@H]4CCCC[C@H](NC(=O)C(C)(C)C(F)(F)F)C(=O)N3C[C@@H]21` [Example 141]: the IC50 against SARS-CoV-2 3CLpro and on MERS-CoV 3CLpro was less than 100 nM throughout.
As to `CC(C)(C)C[C@@H]1NC(=O)[C@@H](NC(=O)c2ccc(F)c(C(F)(F)F)c2)CCCC[C@H]2CNC(=O)[C@H]2C[C@@H](C#N)NC1=O` [Example 142], the concentration for half-maximal inhibition (IC50) against SARS-CoV-2 3CLpro and at MERS-CoV 3CLpro was 100 to 1000 nM throughout.
As to `CC(C)(C)OC(=O)N[C@H]1CCCC[C@H]2CNC(=O)[C@H]2C[C@@H](C#N)NC(=O)[C@@H]2CCCCCN2C1=O` [Example 143], the IC50 against SARS-CoV-2 3CLpro and at MERS-CoV 3CLpro was 100 to 1000 nM throughout.
In the case of `CCO[C@@H]1C[C@H]2C(=O)N[C@H](C#N)C[C@@H]3C(=O)NC[C@@H]3CCCC[C@H](NC(=O)OC(C)(C)C)C(=O)N2C1` [Example 144], the IC50 against SARS-CoV-2 3CLpro is less than 100 nM; against MERS-CoV 3CLpro it was 1000 to 20000 nM.
For `CCC(C)(C)[C@@H]1NC(=O)[C@@H](NC(=O)OC(C)(C)C)CCCC[C@H]2CNC(=O)[C@H]2C[C@@H](C#N)NC1=O` [Example 145], the IC50 against SARS-CoV-2 3CLpro and on MERS-CoV 3CLpro was 1000 to 20000 nM each time.
For the compound `CC(C)(C)OC(=O)N[C@H]1CCCC[C@H]2CNC(=O)[C@H]2C[C@@H](C#N)NC(=O)[C@H]2N(CC(F)(F)C2(C)C)C1=O` [Example 146], the IC50 against SARS-CoV-2 3CLpro and against MERS-CoV 3CLpro was 100 to 1000 nM each time.
Regarding `CO[C@@H]1C[C@H]2C(=O)N[C@H](C#N)C[C@@H]3C(=O)NC[C@@H]3CCCC[C@H](NC(=O)OC(C)(C)C)C(=O)N2C1` [Example 147], the IC50 at SARS-CoV-2 3CLpro is less than 100 nM; on MERS-CoV 3CLpro it was 100 to 1000 nM.
Regarding `CC1(C)[C@@H]2[C@H]3C(=O)N[C@H](C#N)C[C@@H]4C(=O)NC[C@@H]4CCCC[C@H](NC(=O)C45CCC(C4)C5)C(=O)N3C[C@@H]21` [Example 148], the figures for the IC50 on SARS-CoV-2 3CLpro and on MERS-CoV 3CLpro were less than 100 nM and 100 to 1000 nM, respectively.
Take `CC(C)(C)C[C@@H]1NC(=O)[C@@H](NC(=O)C2(C(F)(F)F)CC2)CCCC[C@H]2CNC(=O)[C@H]2C[C@@H](C#N)NC1=O` [Example 149]: the IC50 on SARS-CoV-2 3CLpro is less than 100 nM; on MERS-CoV 3CLpro it was 100 to 1000 nM.
For `N#C[C@@H]1C[C@@H]2C(=O)NC[C@@H]2CCCC[C@H](NC(=O)C2(C(F)(F)F)CC2)C(=O)N2C[C@@H]3CCC[C@@H]3[C@H]2C(=O)N1` [Example 150], in that order: less than 100 nM and less than 100 nM.
Take `N#C[C@@H]1C[C@@H]2C(=O)NC[C@@H]2CCCC[C@H](NC(=O)C2(C(F)(F)F)CC2)C(=O)N2CCC3(CC3)C[C@H]2C(=O)N1` [Example 151]: the IC50 is less than 100 nM on SARS-CoV-2 3CLpro and 100 to 1000 nM at MERS-CoV 3CLpro.
Taken in the same sequence, the figures for `CC1(C)[C@@H]2[C@H]3C(=O)N[C@H](C#N)C[C@@H]4C(=O)NC[C@@H]4CCCC[C@H](NC(=O)OC4(C(F)(F)F)CCC4)C(=O)N3C[C@@H]21` [Example 152] were less than 100 nM and less than 100 nM.
In the case of `CC1(C)[C@@H]2[C@H]3C(=O)N[C@H](C#N)C[C@@H]4C(=O)NC[C@@H]4CCCC[C@H](NC(=O)c4cc(C(F)(F)F)on4)C(=O)N3C[C@@H]21` [Example 153], the IC50 on SARS-CoV-2 3CLpro is less than 100 nM; against MERS-CoV 3CLpro, 100 to 1000 nM.
For `CC1(C)[C@@H]2[C@H]3C(=O)N[C@H](C#N)C[C@@H]4C(=O)NC[C@@H]4CCCC[C@H](NS(=O)(=O)c4ccccc4)C(=O)N3C[C@@H]21` [Example 154], the IC50 at SARS-CoV-2 3CLpro and at MERS-CoV 3CLpro was less than 100 nM in each case.
`N#C[C@@H]1C[C@@H]2C(=O)NC[C@@H]2CCCC[C@H](NS(=O)(=O)c2ccc(F)cc2F)C(=O)N2C[C@@H]3CCC[C@@H]3[C@H]2C(=O)N1` [Example 155]: the IC50 against SARS-CoV-2 3CLpro was less than 100 nM; at MERS-CoV 3CLpro, 100 to 1000 nM.
Turning to `CC1(C)[C@@H]2[C@H]3C(=O)N[C@H](C#N)C[C@@H]4C(=O)NC[C@@H]4CCCC[C@H](NS(=O)(=O)C4CC4)C(=O)N3C[C@@H]21` [Example 156], the IC50 on SARS-CoV-2 3CLpro and against MERS-CoV 3CLpro was less than 100 nM in each case.
